Assays:
[1] = Lipophilicity (log D), shake-flask method; format: physicochemical; conditions: n-octanol/PBS pH 7.4, 177Lu-labeled compound, n = 6
Procedure: The log D values were determined, using the shake-flask method as previously described (Wurzer et al. [2020]). The radiolabeled tracer (0.5–1 MBq, 20 μL) was dissolved in 1 mL of a 1/1 mixture (v/v) of PBS (pH 7.4) and n-octanol in a reaction vial (n = 6). After vigorous mixing of the suspension for 3 min at r.t., the vial was centrifuged at 9000 rpm (ca. 7700×g) for 5 min at room temperature (Heraeus Biofuge 15, Thermo Fisher Scientific, Darmstadt, Germany) and 150 μL aliquots of both layers were measured in a ɣ-counter.

[2] = system: LNCaP tumor xenograft-bearing CB17-SCID mice; format: in vivo, mouse; conditions: 24 h p.i.
Procedure: All animal experiments were conducted in accordance with general animal welfare regulations in Germany (German animal protection act, as amended on 18.05.2018, Art. 141 G v. 29.3.2017 I 626, approval no. 55.2–1-54-2532-71-13) and the institutional guidelines for the care and use of animals. To establish tumor xenografts, LNCaP cells (approx. 10^7 cells) were suspended in 200 μL of a 1/1 mixture (v/v) of DMEM F-12 and Matrigel (BD Biosciences, Heidelberg, Germany) and inoculated subcutaneously onto the right shoulder of 6–8 weeks old CB17-SCID mice (Charles River Laboratories, Sulzfeld, Germany). Mice were used for experiments when tumor size reached 5–10 mm in diameter (3–6 weeks after inoculation).
Approximately 2–10 MBq (0.20 nmol) of the ^177Lu-labeled PSMA inhibitors were injected into the tail vein of LNCaP tumor xenograft-bearing male CB17-SCID mice (n = 3 to 5). They were sacrificed by CO2 asphyxiation and cervical dislocation either 1 h or 24 h post injection (p.i.) (n = 3 for [^177Lu]Lu-5, -6 & -7 (proinhibitor compounds I-III), n = 4 for [^177Lu]Lu-10 (alkyne), n = 5 for [^177Lu]Lu-3 (carbamate I) and n = 5 for [^177Lu]Lu-11 (tetrazole)). Selected organs were removed, weighed and organ activities measured in a γ-counter.
Approximately 2 - 10 MBq (0.20 nmol) of the ^177Lu-labeled PSMA inhibitors were injected into the tail vein of LNCaP tumor xenograft-bearing male CB17-SCID mice (n = 3 to 5). They were sacrificed by CO2 asphyxiation and cervical dislocation either 1 h or 24 h post injection (p.i.) (n = 3 for [^177Lu]Lu-5, -6 & -7 (proinhibitor compounds I-III), n = 4 for [^177Lu]Lu-10 (alkyne) and n = 5 for [^177Lu]Lu-3 (carbamate I) and n = 5 for [^177Lu]Lu-11 (tetrazole)). Selected organs were removed, weighed and organ activities measured in a γ-counter.

PSMA = target: T1, PSMA (Homo sapiens, UniProt Q04609); assay: Competitive binding assay (IC50) on LNCaP cells with ([125I]I-BA)KuE as radioligand; conditions: ([125I]I-BA)KuE 0.2 nM, HBSS (1% BSA), 4 °C, 1 h
T1 construct: host or cells: LNCaP human prostate cancer cells
Procedure: (§1) PSMA-positive LNCaP cells (300265; Cell Lines Service, Eppelheim, Germany) were cultivated in Dulbecco’s modified Eagle medium/Nutrition Mixture F-12 with GlutaMAX (1/1, DMEM-F12, Thermo Fisher Scientific, Darmstadt, Germany) supplemented with 10% fetal bovine serum (Merck KGaA, Darmstadt, Germany) and kept at 37 °C in a humidified 5% CO2 atmosphere. One day (24 ± 2 h) prior to all in vitro experiments, the cultivated LNCaP cells were harvested using a mixture of trypsin/ethylenediamine-tetraacetic acid (0.05%/0.02%) in PBS (Thermo Fisher Scientific, Darmstadt, Germany) and centrifuged at 1300 rpm (ca. 190×g) for 3 min at room temperature (Heraeus Megafuge 16, Thermo Fisher Scientific, Darmstadt, Germany). After centrifugation, the supernatant was disposed and the cell pellet was resuspended in culture medium. Cells were counted with a Neubauer hemocytometer (Paul Marienfeld GmbH & Co. KG, Lauda-Königshofen, Germany) and seeded in 24-well plates.
(§2) Detailed information on affinity and internalization experiments is provided in the supporting information. […] IC50 values of (^natI-BA)KuE were determined on the same day for monitoring assay performance and to identify abnormal deviations in uptake and/or affinity. […] Data were corrected for non-specific binding and normalized to the specific internalization observed for the radioiodinated reference compound (n = 3).
The culture medium was removed and the cells were washed with 500 µL of Hank’s balanced salt solution (HBSS) (Merck KGaA, Darmstadt, Germany), containing 1% bovine serum albumin (BSA) (Merck KGaA, Darmstadt, Germany). Afterwards, 200 µL of HBSS (1% BSA) were added to each well and equilibrated on ice (4 °C) for 15 min. […] Experiments were carried out in triplicates for each concentration. The final concentrations of unlabeled ligand ranged from 10^-11 - 10^-5 M and the final radioligand concentration was 0.2 nM in all binding assays. The cells were incubated for one hour at 4 °C. Incubation was terminated by removal of the incubation medium. The cells were washed with 250 µL of HBSS (1% BSA) and the wash medium was combined with the respective supernatant. This fraction represents the amount of free radioligand. The cells were lysed by addition of 250 µL of 1 M aqueous NaOH. The lysate of each well was transferred to the respective vial as well as 250 µL of 1 M NaOH used for rinsing the well. Quantification of the amount of free and bound activity was performed in a γ-counter. The corresponding IC50 values were calculated using the GraphPad PRISM7 software.

LNCaP cells = assay: Internalization study of 177Lu-labeled ligands in LNCaP cells, normalized to ([125I]I-BA)KuE; format: cell-based, human; conditions: 37 °C; for internalization (in words): time points 0.5 h, 2 h and 4 h; for %Internalization compared to the reference: 1.0 nM 177Lu-compound, normalized to ([125I]I-BA)KuE
Procedure: as §1, §2
The culture medium was removed and the cells were washed with 500 µL of DMEM-F12 containing 5% BSA. Afterwards, 200 µL of DMEM-F12 (5% BSA) were added to each well and left to equilibrate at 37 °C for 15 min. 25 µL of DMEM-F12 (5% BSA) were added to each well, followed by the addition of 25 µL of the respective ^177Lu-labeled ligand (10.0 nM in DMEM-F12 (5% BSA)). For blocking PSMA-specific binding and uptake, 25 µL of 2-(phosphonomethyl)pentane-1,5-dioic acid (2-PMPA) (100 µM in DMEM (5% BSA)) instead of DMEM-F12 (5% BSA) were added prior to radiotracer addition. […] Each experiment (control and blockade) was performed in triplicate. […] Incubation was terminated by placing the plate on ice (4 °C, 1 min) and removal of the incubation medium. The cells were washed with 250 µL of ice-cold PBS and the wash medium was combined with the respective supernatant. This fraction represents the amount of free radioligand. 250 µL of ice-cold 2-PMPA (10 µM in PBS) were added and the cells were incubated for 10 min at 4 °C. Afterwards, the cells were rinsed again with 250 µL of ice-cold PBS and the wash medium was combined with the respective supernatant. This fraction represents the amount of cell surface-bound ligand. In the last step, the cells were lysed by addition of 250 µL of 1 M aqueous NaOH. After 20 min, the lysate of each well was transferred to the respective vial as well as 250 µL of 1 M NaOH used for rinsing the well. This fraction represents the amount of internalized radioligand. Quantification of the amount of free, cell surface-bound and internalized activity was performed in a γ-counter.

[3] = in vivo; cited from earlier work

T1 sequence (Q04609 whole entry): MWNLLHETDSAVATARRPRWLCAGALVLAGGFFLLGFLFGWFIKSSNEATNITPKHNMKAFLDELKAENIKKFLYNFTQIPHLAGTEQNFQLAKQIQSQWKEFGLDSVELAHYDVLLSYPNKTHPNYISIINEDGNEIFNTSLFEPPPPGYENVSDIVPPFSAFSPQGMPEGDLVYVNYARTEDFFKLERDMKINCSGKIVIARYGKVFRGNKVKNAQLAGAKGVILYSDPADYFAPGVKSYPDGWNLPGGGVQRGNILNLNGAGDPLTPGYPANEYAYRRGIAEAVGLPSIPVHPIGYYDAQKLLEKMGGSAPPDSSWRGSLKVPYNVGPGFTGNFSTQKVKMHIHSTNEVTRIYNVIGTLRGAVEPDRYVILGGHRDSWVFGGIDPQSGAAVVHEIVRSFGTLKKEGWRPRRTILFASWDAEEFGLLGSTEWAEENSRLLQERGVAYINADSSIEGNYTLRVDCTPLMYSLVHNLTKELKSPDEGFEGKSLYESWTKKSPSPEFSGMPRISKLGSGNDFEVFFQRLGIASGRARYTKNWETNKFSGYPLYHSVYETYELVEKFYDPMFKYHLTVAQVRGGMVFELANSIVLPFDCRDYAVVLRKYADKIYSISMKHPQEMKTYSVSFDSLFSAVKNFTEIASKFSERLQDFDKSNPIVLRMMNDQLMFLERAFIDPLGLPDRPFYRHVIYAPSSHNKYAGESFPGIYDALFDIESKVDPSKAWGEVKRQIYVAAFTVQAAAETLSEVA

Molecule	log D [1]	Biodistribution Heart [2] [% ID/g]	Biodistribution Intestine [2] [% ID/g]	Biodistribution Kidneys [2] [% ID/g]	Biodistribution Liver [2] [% ID/g]	Biodistribution Lung [2] [% ID/g]	Biodistribution Pancreas [2] [% ID/g]	Biodistribution Parotid gland [2] [% ID/g]	Biodistribution Spleen [2] [% ID/g]	Biodistribution Stomach [2] [% ID/g]	Biodistribution Submandibular gland [2] [% ID/g]	Biodistribution Tumor [2] [% ID/g]	IC50 (PSMA) [µM]	internalization (in words) (LNCaP cells; 1 h)	%Internalization compared to the reference (LNCaP cells; 0.5 h)	%Internalization compared to the reference (LNCaP cells; 1 h)	%Internalization compared to the reference (LNCaP cells; 2 h)	%Internalization compared to the reference (LNCaP cells; 4 h)	further results
CSCC[C@H](NC(=O)CC[C@H](NC(=O)N[C@@H](CCC(=O)N[C@H](CCCNC(=O)CCC(=O)NCCCC[C@@H](NC(=O)[C@@H](CNC(=O)c1ccc([Si](F)(C(C)(C)C)C(C)(C)C)cc1)NC(=O)CN1CCN(CC(=O)[O-])CCN(CC(=O)[O-])CCN(CC(=O)[O-])CC1)C(=O)O)C(=O)O)C(=O)O)C(=O)O)C(=O)O.[Lu+3] [^natLu/[^177Lu]Lu-5]	−2.89 ± 0.18	0.01 ± 0.00	0.55 ± 0.04	0.48 ± 0.02	0.05 ± 0.00	0.33 ± 0.30	0.01 ± 0.00	0.02 ± 0.00	0.05 ± 0.01	0.14 ± 0.07	0.02 ± 0.01	0.09 ± 0.02	26 ± 16	no internalization could be detected	0.00 ± 0.00%	0.00 ± 0.00%	0.17 ± 0.32%	0.01 ± 0.05%	–
CCCCCCC(NC(=O)C(CCC(=O)O)NC(=O)NC(CCC(=O)NC(CCCNC(=O)CCC(=O)NCCCCC(NC(=O)C(CNC(=O)c1ccc([Si](F)(C(C)(C)C)C(C)(C)C)cc1)NC(=O)CN1CCN(CC(=O)[O-])CCN(CC(=O)[O-])CCN(CC(=O)[O-])CC1)C(=O)O)C(=O)O)C(=O)O)C(=O)O.[Lu+3] (centres unmarked) [^natLu/[^177Lu]Lu-7]	−2.37 ± 0.22	0.03 ± 0.01	0.10 ± 0.05	2.04 ± 0.75	0.17 ± 0.05	0.04 ± 0.01	0.02 ± 0.00	0.06 ± 0.01	0.08 ± 0.02	0.04 ± 0.01	0.05 ± 0.02	0.14 ± 0.05	6.3 ± 3.6	no internalization could be detected	0.5 h: 0.00 ± 0.00 1 h: 0.00 ± 0.00 2 h: 0.00 ± 0.00 4 h: 0.00 ± 0.00%	0.5 h: 0.00 ± 0.00 1 h: 0.00 ± 0.00 2 h: 0.00 ± 0.00 4 h: 0.00 ± 0.00%	0.5 h: 0.00 ± 0.00 1 h: 0.00 ± 0.00 2 h: 0.00 ± 0.00 4 h: 0.00 ± 0.00%	0.5 h: 0.00 ± 0.00 1 h: 0.00 ± 0.00 2 h: 0.00 ± 0.00 4 h: 0.00 ± 0.00%	Biodistribution Adrenals [2]: 0.03 ± 0.01 % ID/g; Biodistribution Blood [2]: 0.01 ± 0.00 % ID/g; Biodistribution Bone [2]: 0.04 ± 0.01 % ID/g; Biodistribution Muscle [2]: 0.01 ± 0.00 % ID/g
botulinum toxin	–	–	–	–	–	–	–	–	–	–	–	–	–	–	–	–	–	–	decrease of the SUVmean in the right parotid gland compared to the left (control) [3]: up to 64%

Source: PMC7910394, “Design of PSMA ligands with modifications at the inhibitor part: an approach to reduce the salivary gland uptake of radiolabeled PSMA inhibitors?” (EJNMMI Radiopharmacy and Chemistry, 2021)
